Key:
Type in all cases: in vivo
[1] = test system: field corn (Zea mays L., var. Dekalb 535, CORN); test: Post-emerge greenhouse screening, crop safety / corn selectivity (phytotoxicity rating); settings: 14 days after application
From the text: (§1) A standard greenhouse herbicide activity screening system was used to evaluate the herbicidal efficacy and crop safety of these test compounds. Seven broadleaf weed species including redroot pigweed (Amaranthus retroflexus, AMARE), velvetleaf (Abutilon theophrasti, ABUTH), sicklepod (Cassia obtusifolia, CASOB), ivyleaf morningglory (Ipomoea hederacea, IPOHE), lambsquarters (Chenopodium album, CHEAL), common ragweed (Ambrosia artemisiifolia L., AMBEL), and cocklebur (Xanthium strumarium, XANST) were used as test species. Four grass weed species including green foxtail (Setaria viridis, SETVI), barnyardgrass (Echinochloa crus-galli, ECHCG), johnsongrass (Sorghum halepense, SORHA), and large crabgrass (Digitaria sanguinalis, DIGSA) were also used. In addition, three crop species, field corn (Zea mays L., var. Dekalb 535, CORN), soybean (Glycine max L., var. Pella 86, SOY), and upland rice (Oryza sp., var.Tebonnet, RICE) were included.
(§2) All plants were grown in 10 cm square plastic pots which were filled with a sandy loam soil mix. For pre-emerge tests, seeds were planted one day prior to application of the test compounds. For post-emerge tests, seeds were planted 8-21 days prior to the test to allow emergence and good foliage development prior to application of the test substances. At the time of the post-emerge application, plants of all species were usually at the 2-3 leaf stage of development.
(§3) All test compounds were dissolved in acetone and applied to the test units in a volume of 187 1/ha. Test materials were applied at rates ranging from 15 g ai/ha to 1000 g ai/ha using a track sprayer equipped with a TJ8001E even flow flat fan spray nozzle. Plants were arranged on a shelf so that the top of the canopy (post-emerge) or top of the soil surface (pre-emerge) was 40-45 cm below the nozzle. Pressurized air was used to force the test solution through the nozzle as it was mechanically advanced (via electrically driven chain drive) over the top of all test plants/pots. This application simulates a typical commercial field herbicide application.
(§4) In the post-emerge test, a commercial non-ionic surfactant was also included (0.25% v/v) to enhance wetting of the leaf surfaces of target plants. Immediately after application, test units of the pre-emerge applications were watered at the soil surface to incorporate the test materials. Subsequently, these test units were bottom-watered. Post-emerge test units were always bottom-watered.
(§5) At 14 days after application of the test materials, phytotoxicity ratings were recorded. A rating scale of 0-100 was used as previously described in Research Methods in Weed Science, 2nd edition, B. Truelove, Ed., Southern Weed Science Society, Auburn University, Auburn, Ala., 1977. Briefly, “0” corresponds to no damage and “100” corresponds to complete death of all plants in the test unit. This scale was used both to determine efficacy against weed species and damage to crop species. Herbicide activity data for various compounds of this invention, which are shown by compound No. in Tables I-VI, are shown in Tables VIII-IX.

[2] = test system: sicklepod (Cassia obtusifolia, CASOB); test: Pre-emerge greenhouse herbicide activity screening, phytotoxicity rating; settings: 14 days after application
From the text: as §1, §2, §3, §4, §5

[3] = test system: redroot pigweed (Amaranthus retroflexus, AMARE); test: as above; settings: 14 days after application
From the text: as §1, §2, §3, §4, §5

[4] = test system: lambsquarters (Chenopodium album, CHEAL); test: as above; settings: 14 days after application
From the text: as §1, §2, §3, §4, §5

[5] = test system: large crabgrass (Digitaria sanguinalis, DIGSA); test: as above; settings: 14 days after application
From the text: as §1, §2, §3, §4, §5

[6] = test system: velvetleaf (Abutilon theophrasti, ABUTH); test: as above; settings: 14 days after application
From the text: as §1, §2, §3, §4, §5

[7] = test system: barnyardgrass (Echinochloa crus-galli, ECHCG); test: as above; settings: 14 days after application
From the text: as §1, §2, §3, §4, §5

[8] = test system: common ragweed (Ambrosia artemisiifolia L., AMBEL); test: as above; settings: 14 days after application
From the text: as §1, §2, §3, §4, §5

[9] = test system: johnsongrass (Sorghum halepense, SORHA); test: as above; settings: 14 days after application
From the text: as §1, §2, §3, §4, §5

[10] = test system: ivyleaf morningglory (Ipomoea hederacea, IPOHE); test: as above; settings: 14 days after application
From the text: as §1, §2, §3, §4, §5

[11] = test system: green foxtail (Setaria viridis, SETVI); test: as above; settings: 14 days after application
From the text: as §1, §2, §3, §4, §5

[12] = test system: field corn (Zea mays L., var. Dekalb 535, CORN); test: Pre-emerge greenhouse screening, crop safety (phytotoxicity rating); settings: 14 days after application
From the text: as §1, §2, §3, §4, §5

[13] = test system: soybean (Glycine max L., var. Pella 86, SOY); test: as above; settings: 14 days after application
From the text: as §1, §2, §3, §4, §5

[14] = test system: upland rice (Oryza sp., var.Tebonnet, RICE); test: as above; settings: 14 days after application
From the text: as §1, §2, §3, §4, §5

[15] = test system: sicklepod (Cassia obtusifolia, CASOB); test: Post-emerge greenhouse herbicide activity screening, phytotoxicity rating
From the text: as §1, §2, §3, §4, §5

[16] = test system: redroot pigweed (Amaranthus retroflexus, AMARE); test: as above
From the text: as §1, §2, §3, §4, §5

[17] = test system: lambsquarters (Chenopodium album, CHEAL); test: as above
From the text: as §1, §2, §3, §4, §5

[18] = test system: large crabgrass (Digitaria sanguinalis, DIGSA); test: as above; settings: 14 days after application
From the text: as §1, §2, §3, §4, §5

[19] = test system: velvetleaf (Abutilon theophrasti, ABUTH); test: as above; settings: 14 days after application
From the text: as §1, §2, §3, §4, §5

[20] = test system: barnyardgrass (Echinochloa crus-galli, ECHCG); test: as above; settings: 14 days after application
From the text: as §1, §2, §3, §4, §5

[21] = test system: common ragweed (Ambrosia artemisiifolia L., AMBEL); test: as above
From the text: as §1, §2, §3, §4, §5

[22] = test system: johnsongrass (Sorghum halepense, SORHA); test: as above; settings: 14 days after application
From the text: as §1, §2, §3, §4, §5

[23] = test system: ivyleaf morningglory (Ipomoea hederacea, IPOHE); test: as above; settings: 14 days after application
From the text: as §1, §2, §3, §4, §5

[24] = test system: green foxtail (Setaria viridis, SETVI); test: as above
From the text: as §1, §2, §3, §4, §5

[25] = test system: soybean (Glycine max L., var. Pella 86, SOY); test: Post-emerge greenhouse screening, crop safety (phytotoxicity rating); settings: 14 days after application
From the text: as §1, §2, §3, §4, §5

[26] = test system: upland rice (Oryza sp., var.Tebonnet, RICE); test: as above; settings: 14 days after application
From the text: as §1, §2, §3, §4, §5

[27] = 125 g ai/ha, 14 days after application
[28] = 250 g ai/ha, 14 days after application

Cn1c(=S)n(C)c(=O)n(-c2cc(Oc3ncccn3)c(Cl)cc2F)c1=O [Compound 2-1, 3-[4-Chloro-2-fluoro-5-(2-pyrimidinyloxy)phenyl]-5,6-dihydro-1,5-dimethyl-6-thioxo-1,3,5-triazine-2,4(1H,3H)-dione]
CORN crop damage, phytotoxicity rating (0-100 scale) ([1]; 125 g ai/ha): 0
CORN crop damage, phytotoxicity rating (0-100 scale) ([1]; 250 g ai/ha): 5
CASOB phytotoxicity rating (0-100 scale) ([2]; 125 g ai/ha): 100
CASOB phytotoxicity rating (0-100 scale) ([2]; 250 g ai/ha): 100
AMARE phytotoxicity rating (0-100 scale) ([3]; 125 g ai/ha): 100
AMARE phytotoxicity rating (0-100 scale) ([3]; 250 g ai/ha): 100
CHEAL phytotoxicity rating (0-100 scale) ([4]; 125 g ai/ha): 100
CHEAL phytotoxicity rating (0-100 scale) ([4]; 250 g ai/ha): 100
DIGSA phytotoxicity rating (0-100 scale) ([5]; 125 g ai/ha): 100
DIGSA phytotoxicity rating (0-100 scale) ([5]; 250 g ai/ha): 100
ABUTH phytotoxicity rating (0-100 scale) ([6]; 125 g ai/ha): 100
ABUTH phytotoxicity rating (0-100 scale) ([6]; 250 g ai/ha): 100
ECHCG phytotoxicity rating (0-100 scale) ([7]; 125 g ai/ha): 100
ECHCG phytotoxicity rating (0-100 scale) ([7]; 250 g ai/ha): 100
AMBEL phytotoxicity rating (0-100 scale) ([8]; 125 g ai/ha): 100
AMBEL phytotoxicity rating (0-100 scale) ([8]; 250 g ai/ha): 100
SORHA phytotoxicity rating (0-100 scale) ([9]; 125 g ai/ha): 100
SORHA phytotoxicity rating (0-100 scale) ([9]; 250 g ai/ha): 100
IPOHE phytotoxicity rating (0-100 scale) ([10]; 125 g ai/ha): 100
IPOHE phytotoxicity rating (0-100 scale) ([10]; 250 g ai/ha): 100
SETVI phytotoxicity rating (0-100 scale) ([11]; 125 g ai/ha): 100
SETVI phytotoxicity rating (0-100 scale) ([11]; 250 g ai/ha): 100
CORN crop damage, phytotoxicity rating (0-100 scale) ([12]; 125 g ai/ha): 50
CORN crop damage, phytotoxicity rating (0-100 scale) ([12]; 250 g ai/ha): 65
SOY crop damage, phytotoxicity rating (0-100 scale) ([13]; 125 g ai/ha): 90
SOY crop damage, phytotoxicity rating (0-100 scale) ([13]; 250 g ai/ha): 100
RICE crop damage, phytotoxicity rating (0-100 scale) ([14]; 125 g ai/ha): 99
RICE crop damage, phytotoxicity rating (0-100 scale) ([14]; 250 g ai/ha): 99
CASOB phytotoxicity rating (0-100 scale) ([15]; 31.3 g ai/ha): 60
CASOB phytotoxicity rating (0-100 scale) ([15]; 62.5 g ai/ha): 60
CASOB phytotoxicity rating (0-100 scale) [15, 27]: 65
CASOB phytotoxicity rating (0-100 scale) [15, 28]: 75
AMARE phytotoxicity rating (0-100 scale) ([16]; 31.3 g ai/ha): 100
AMARE phytotoxicity rating (0-100 scale) ([16]; 62.5 g ai/ha): 100
AMARE phytotoxicity rating (0-100 scale) [16, 27]: 100
AMARE phytotoxicity rating (0-100 scale) [16, 28]: 100
CHEAL phytotoxicity rating (0-100 scale) ([17]; 31.3 g ai/ha): 100
CHEAL phytotoxicity rating (0-100 scale) ([17]; 62.5 g ai/ha): 100
CHEAL phytotoxicity rating (0-100 scale) [17, 27]: 100
CHEAL phytotoxicity rating (0-100 scale) [17, 28]: 100
DIGSA phytotoxicity rating (0-100 scale) ([18]; 125 g ai/ha): 55
DIGSA phytotoxicity rating (0-100 scale) ([18]; 250 g ai/ha): 55
ABUTH phytotoxicity rating (0-100 scale) ([19]; 125 g ai/ha): 100
ABUTH phytotoxicity rating (0-100 scale) ([19]; 250 g ai/ha): 100
ECHCG phytotoxicity rating (0-100 scale) ([20]; 125 g ai/ha): 50
ECHCG phytotoxicity rating (0-100 scale) ([20]; 250 g ai/ha): 80
AMBEL phytotoxicity rating (0-100 scale) ([21]; 31.3 g ai/ha): 50
AMBEL phytotoxicity rating (0-100 scale) ([21]; 62.5 g ai/ha): 50
AMBEL phytotoxicity rating (0-100 scale) [21, 27]: 60
AMBEL phytotoxicity rating (0-100 scale) [21, 28]: 65
SORHA phytotoxicity rating (0-100 scale) ([22]; 125 g ai/ha): 60
SORHA phytotoxicity rating (0-100 scale) ([22]; 250 g ai/ha): 70
IPOHE phytotoxicity rating (0-100 scale) ([23]; 125 g ai/ha): 80
IPOHE phytotoxicity rating (0-100 scale) ([23]; 250 g ai/ha): 99
SETVI phytotoxicity rating (0-100 scale) ([24]; 31.3 g ai/ha): 0
SETVI phytotoxicity rating (0-100 scale) ([24]; 62.5 g ai/ha): 60
SETVI phytotoxicity rating (0-100 scale) [24, 27]: 70
SETVI phytotoxicity rating (0-100 scale) [24, 28]: 80
SOY crop damage, phytotoxicity rating (0-100 scale) ([25]; 125 g ai/ha): 50
SOY crop damage, phytotoxicity rating (0-100 scale) ([25]; 250 g ai/ha): 65
RICE crop damage, phytotoxicity rating (0-100 scale) ([26]; 125 g ai/ha): 15
RICE crop damage, phytotoxicity rating (0-100 scale) ([26]; 250 g ai/ha): 40

— patent publication US6613718B2, “Aryl ether derivatives and processes for their preparation and herbicidal and desiccant compositions containing them” (Ishihara Sangyo Kaisha, Ltd., priority 2001, dated 2003)
